Data: US20210038607A1, “OXADIAZOLYLTHIOPHENE DERIVATIVES USEFUL AS HISTONE DEACETYLASE INHIBITORS” (Karus Therapeutics Limited, priority 2018, published 2021)

Assays:
[1] = biological target: T1, Human HDAC9 (Homo sapiens, UniProt Q9UKV0); assay: HDAC9 biochemical assay, class IIa-specific substrate; conditions: read-out: HDAC Isoform IC50 (nM) 9
T1 construct: amino acids 604-1066 with C-terminal His tag; His (C); host or cells: baculovirus expression system
Summary of the method: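 HDAC9 residues 604-1066 (C-terminal His tag, baculovirus-expressed) at 0.06 ng/ul with 50 μM class IIa substrate Boc-Lys(trifluoroacetyl)-AMC in Tris-HCl pH 8.0 buffer with BSA and 1% DMSO. 30 min at room temperature, then developer added; fluorescence read at 360/460 nm Ex/Em.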

[2] = biological target: T2, Human HDAC4 (Homo sapiens, UniProt P56524); assay: HDAC4 biochemical assay, class IIa-specific substrate; conditions: read-out: HDAC Isoform IC50 (nM) 4
T2 construct: amino acids 627-1085 with N-terminal GST tag; GST (N); host or cells: baculovirus expression system
Summary of the method: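 Two-step fluorogenic read-out: deacetylated BOC-Lys(trifluoroacetyl)-AMC (50 μM) was digested by developer and measured at Ex/Em 360/460. Deacetylation by 0.004 ng/ul HDAC4 (aa 627-1085, N-terminal GST) ran 30 min at room temperature, pH 8.0 Tris buffer, 1 mg/mL BSA, 1% DMSO.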

[3] = biological target: T3, Human HDAC1 (Homo sapiens, UniProt Q13547); assay: HDAC1 biochemical assay, AMC-labeled peptide substrate; conditions: read-out: HDAC Isoform IC50 (nM) 1
T3 construct: full length with C-terminal His-tag and C-terminal FLAG-tag; His (C); FLAG (C); host or cells: baculovirus expression system
Summary of the method: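 Two-step fluorogenic read: HDAC1 deacetylates 50 μM acetyl-lysine AMC peptide RHKK(Ac)AMC for 1 h at 30° C (pH 8.0, 1% DMSO, with compound), then developer digests the product for fluorescence at Ex/Em 360/460. Enzyme is full-length human, His/FLAG-tagged, insect-cell expressed, at 0.3 ng/ul.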

[4] = biological target: T4, Human HDAC7 (Homo sapiens, UniProt Q8WUI4); assay: HDAC7 biochemical assay, class IIa-specific substrate; conditions: read-out: HDAC Isoform IC50 (nM) 7
T4 construct: (a.a. 518-end) with N-terminal GST tag; GST (N); host or cells: baculovirus expression system
T4 sequence (Q8WUI4 518-952 limits assumed): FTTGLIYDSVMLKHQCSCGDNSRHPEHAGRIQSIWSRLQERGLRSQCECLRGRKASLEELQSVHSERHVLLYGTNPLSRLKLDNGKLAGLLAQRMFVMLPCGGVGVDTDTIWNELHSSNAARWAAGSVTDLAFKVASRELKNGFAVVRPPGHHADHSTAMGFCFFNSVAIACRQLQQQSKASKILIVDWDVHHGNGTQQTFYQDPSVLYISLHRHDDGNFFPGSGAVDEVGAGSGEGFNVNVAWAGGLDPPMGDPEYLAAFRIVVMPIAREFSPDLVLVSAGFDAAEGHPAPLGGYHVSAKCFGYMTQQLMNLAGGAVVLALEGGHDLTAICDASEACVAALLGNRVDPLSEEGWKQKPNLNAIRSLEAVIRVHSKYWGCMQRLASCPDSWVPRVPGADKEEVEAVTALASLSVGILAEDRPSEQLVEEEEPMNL
Summary of the method: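 Two-step fluorogenic readout: class IIa-selective trifluoroacetyl-lysine AMC substrate (50 μM) deacetylated by N-terminal GST-HDAC7 fragment (0.001 ng/ul), then digested by developer, Ex/Em 360/460. Reaction: 30 min, room temperature, Tris-HCl pH 8.0, NaCl/KCl/MgCl2, 1 mg/mL BSA, 1% DMSO.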

[5] = biological target: T5, Recombinant human HDAC6 (Homo sapiens, UniProt Q9UBN7); assay: HDAC6 biochemical assay, AMC-labeled peptide substrate; conditions: HDAC6; read-out: HDAC Isoform IC50 (nM) 6
T5 construct: full length, MW=159 kDa; GST (N); host or cells: Sf9 insect cells (baculovirus)
T5 sequence (Q9UBN7 1-1215): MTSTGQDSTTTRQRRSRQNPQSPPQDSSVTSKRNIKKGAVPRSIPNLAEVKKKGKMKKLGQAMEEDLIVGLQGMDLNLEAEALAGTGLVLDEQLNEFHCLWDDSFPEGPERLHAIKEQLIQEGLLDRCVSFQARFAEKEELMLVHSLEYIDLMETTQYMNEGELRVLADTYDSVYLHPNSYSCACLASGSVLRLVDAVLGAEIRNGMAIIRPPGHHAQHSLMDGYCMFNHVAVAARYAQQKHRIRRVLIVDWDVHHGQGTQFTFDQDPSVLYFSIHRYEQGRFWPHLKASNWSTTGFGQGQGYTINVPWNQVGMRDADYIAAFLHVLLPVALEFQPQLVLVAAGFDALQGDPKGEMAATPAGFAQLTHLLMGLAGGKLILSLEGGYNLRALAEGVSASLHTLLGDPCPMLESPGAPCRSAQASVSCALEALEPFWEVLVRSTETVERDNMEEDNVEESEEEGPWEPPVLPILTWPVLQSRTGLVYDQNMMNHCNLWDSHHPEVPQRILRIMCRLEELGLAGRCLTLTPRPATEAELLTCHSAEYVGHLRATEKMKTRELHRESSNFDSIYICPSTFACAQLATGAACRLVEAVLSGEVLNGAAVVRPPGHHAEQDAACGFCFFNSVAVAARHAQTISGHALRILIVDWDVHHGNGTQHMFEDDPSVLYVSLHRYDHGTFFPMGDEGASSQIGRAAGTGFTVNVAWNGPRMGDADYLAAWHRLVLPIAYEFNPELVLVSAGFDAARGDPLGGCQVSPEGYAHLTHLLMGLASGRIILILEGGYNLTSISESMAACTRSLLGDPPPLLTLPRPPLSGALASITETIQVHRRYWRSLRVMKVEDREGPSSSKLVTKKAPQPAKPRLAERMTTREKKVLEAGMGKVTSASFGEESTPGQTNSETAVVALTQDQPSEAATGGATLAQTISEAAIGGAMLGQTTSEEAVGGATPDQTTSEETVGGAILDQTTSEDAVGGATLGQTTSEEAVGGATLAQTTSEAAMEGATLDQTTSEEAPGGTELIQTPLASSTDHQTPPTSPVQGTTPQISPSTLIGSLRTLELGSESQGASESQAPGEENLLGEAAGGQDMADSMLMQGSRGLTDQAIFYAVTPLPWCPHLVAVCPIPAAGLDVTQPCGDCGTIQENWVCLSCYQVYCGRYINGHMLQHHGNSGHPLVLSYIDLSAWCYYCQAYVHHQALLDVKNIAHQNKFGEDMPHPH
Summary of the method: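 Two-step fluorogenic read-out: enzyme deacetylates 50 μM RHKK(Ac)AMC for 1 h at 30° C in pH 8.0 Tris buffer with BSA and 1% DMSO, then developer cleavage gives signal at Ex 360/Em 460. Enzyme: 0.3 ng/ul recombinant full-length human HDAC6, GST-tagged, Sf9-expressed.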

[6] = biological target: T6, Human HDAC5 (Homo sapiens, UniProt Q9UQL6); assay: HDAC5 biochemical assay, class IIa-specific substrate; conditions: read-out: HDAC Isoform IC50 (nM) 5
T6 construct: full length with C-terminal His tag, MW=51.1 kDa; His (C); host or cells: baculovirus expression system
Summary of the method: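 Two-step fluorogenic read-out: deacetylated trifluoroacetyl-lysine AMC substrate (50 μM) digested by developer, measured at Ex/Em 360/460. Deacetylation step: 0.05 ng/ul His-tagged full-length baculoviral enzyme with compound, 30 min, room temperature, pH 8.0 Tris with 1 mg/mL BSA and 1% DMSO.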

T2 sequence (P56524 627-1084 limits assumed): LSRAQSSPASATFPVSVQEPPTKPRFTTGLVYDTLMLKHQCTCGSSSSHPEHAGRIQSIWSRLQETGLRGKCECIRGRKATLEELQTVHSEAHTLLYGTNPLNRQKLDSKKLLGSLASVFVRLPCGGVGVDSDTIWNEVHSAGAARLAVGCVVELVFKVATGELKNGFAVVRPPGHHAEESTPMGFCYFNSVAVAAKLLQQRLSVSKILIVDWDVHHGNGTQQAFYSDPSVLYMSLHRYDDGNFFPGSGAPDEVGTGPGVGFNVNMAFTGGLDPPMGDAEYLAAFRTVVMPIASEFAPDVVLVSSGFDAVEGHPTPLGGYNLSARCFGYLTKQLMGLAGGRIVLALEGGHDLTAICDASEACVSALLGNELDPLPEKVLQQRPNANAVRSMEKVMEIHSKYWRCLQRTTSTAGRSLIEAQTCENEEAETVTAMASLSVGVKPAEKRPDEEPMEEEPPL
T1 sequence (Q9UKV0 604-1066 isoform Q9UKV0-5): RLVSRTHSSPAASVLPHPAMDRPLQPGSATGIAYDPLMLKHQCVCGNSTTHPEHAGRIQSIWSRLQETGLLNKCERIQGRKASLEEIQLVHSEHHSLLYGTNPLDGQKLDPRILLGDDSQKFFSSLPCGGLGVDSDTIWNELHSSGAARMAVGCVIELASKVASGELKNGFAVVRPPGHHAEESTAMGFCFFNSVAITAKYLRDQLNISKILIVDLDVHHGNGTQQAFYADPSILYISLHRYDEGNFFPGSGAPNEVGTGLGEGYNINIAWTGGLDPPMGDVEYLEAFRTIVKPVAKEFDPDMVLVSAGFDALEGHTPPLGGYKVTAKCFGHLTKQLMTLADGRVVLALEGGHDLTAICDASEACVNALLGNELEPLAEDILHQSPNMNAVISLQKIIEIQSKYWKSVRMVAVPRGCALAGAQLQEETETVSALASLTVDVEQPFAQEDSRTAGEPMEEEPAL
T6 sequence (Q9UQL6 656-1122 limits assumed): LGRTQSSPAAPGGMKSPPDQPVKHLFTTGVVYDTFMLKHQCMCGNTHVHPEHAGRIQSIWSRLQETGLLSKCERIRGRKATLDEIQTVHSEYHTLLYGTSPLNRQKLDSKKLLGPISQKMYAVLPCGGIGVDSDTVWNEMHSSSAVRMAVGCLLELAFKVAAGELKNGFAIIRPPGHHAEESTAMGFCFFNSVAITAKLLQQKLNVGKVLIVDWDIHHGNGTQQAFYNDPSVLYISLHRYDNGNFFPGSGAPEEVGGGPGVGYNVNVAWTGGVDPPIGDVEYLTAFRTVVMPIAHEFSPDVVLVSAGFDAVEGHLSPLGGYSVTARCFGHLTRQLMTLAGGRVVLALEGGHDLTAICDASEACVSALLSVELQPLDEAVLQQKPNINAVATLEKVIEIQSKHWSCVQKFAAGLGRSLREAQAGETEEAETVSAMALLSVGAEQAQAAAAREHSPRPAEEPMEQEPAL
T3 sequence (Q13547 whole entry, canonical isoform): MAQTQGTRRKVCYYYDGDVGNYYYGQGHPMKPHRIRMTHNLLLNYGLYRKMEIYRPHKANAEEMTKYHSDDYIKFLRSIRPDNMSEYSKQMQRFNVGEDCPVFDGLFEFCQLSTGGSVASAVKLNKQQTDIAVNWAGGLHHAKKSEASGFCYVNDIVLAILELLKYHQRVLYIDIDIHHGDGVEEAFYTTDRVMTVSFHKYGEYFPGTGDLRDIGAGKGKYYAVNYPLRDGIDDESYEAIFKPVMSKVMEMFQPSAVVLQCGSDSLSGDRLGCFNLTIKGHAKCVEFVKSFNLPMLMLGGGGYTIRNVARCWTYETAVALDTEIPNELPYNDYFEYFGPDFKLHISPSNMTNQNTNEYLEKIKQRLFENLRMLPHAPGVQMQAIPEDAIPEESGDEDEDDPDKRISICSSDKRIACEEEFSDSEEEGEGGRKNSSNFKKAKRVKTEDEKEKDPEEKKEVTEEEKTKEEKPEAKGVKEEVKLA

| SMILES | IC50 [1] [nM] | IC50 [2] [nM] | IC50 [3] [nM] | IC50 [4] [nM] | IC50 [5] [nM] | IC50 [6] [nM] |
| --- | --- | --- | --- | --- | --- | --- |
| FC(F)(F)c1nc(-c2ccc(CN(c3cnccn3)c3ccc4nccn4n3)s2)no1 [Example DT, N-{Imidazo[1,2-b]pyridazin-6-yl}-N-({5-[5-(trifluoromethyl)-1,2,4-oxadiazol-3-yl]thiophen-2-yl}methyl)pyrazin-2-amine] | ≤ 1000 | ≤ 1000 | > 10000 | ≤ 500 | ≤ 1000 | ≤ 500 |
| COc1ncc(N(Cc2ccc(-c3noc(C(F)(F)F)n3)s2)c2cnccn2)nc1OC [Example BW, 5,6-Dimethoxy-N-(pyrazin-2-yl)-N-({5-[5-(trifluoromethyl)-1,2,4-oxadiazol-3-yl]thiophen-2-yl}methyl)pyrazin-2-amine] | ≤ 10000 | ≤ 10000 | > 10000 | ≤ 10000 | ≤ 10000 | ≤ 10000 |
| Cn1ccc2nc(N(Cc3ccc(-c4noc(C(F)(F)F)n4)s3)c3cnccn3)cnc21 [Example BO, N-{5-Methyl-5H-pyrrolo[2,3-b]pyrazin-2-yl}-N-({5-[5-(trifluoromethyl)-1,2,4-oxadiazol-3-yl]thiophen-2-yl}methyl)pyrazin-2-amine] | ≤ 10000 | ≤ 10000 | > 10000 | ≤ 10000 | ≤ 10000 | ≤ 10000 |
| Cc1cnc(N(Cc2ccc(-c3noc(C(F)(F)F)n3)s2)c2cnccn2)nc1 [Example AW, 5-Methyl-N-(pyrazin-2-yl)-N-({5-[5-(trifluoromethyl)-1,2,4-oxadiazol-3-yl]thiophen-2-yl}methyl)pyrimidin-2-amine] | ≤ 10000 | ≤ 10000 | > 10000 | ≤ 10000 | ≤ 10000 | ≤ 10000 |
| Cc1ncnc(C)c1N(Cc1ccc(-c2noc(C(F)(F)F)n2)s1)c1cnccn1 [Example DC, 4,6-Dimethyl-N-(pyrazin-2-yl)-N-({5-[5-(trifluoromethyl)-1,2,4-oxadiazol-3-yl]thiophen-2-yl}methyl)pyrimidin-5-amine] | ≤ 1000 | ≤ 500 | > 10000 | ≤ 500 | ≤ 10000 | ≤ 500 |
| FC(F)(F)c1nc(-c2ccc(CN(c3cnccn3)c3ccc(N4CCOCC4)nn3)s2)no1 [Example DJ, 6-(Morpholin-4-yl)-N-(pyrazin-2-yl)-N-({5-[5-(trifluoromethyl)-1,2,4-oxadiazol-3-yl]thiophen-2-yl}methyl)pyridazin-3-amine] | ≤ 10000 | ≤ 10000 | > 10000 | ≤ 10000 | ≤ 500 | ≤ 1000 |
| Cc1cc(N(Cc2ccc(-c3noc(C(F)(F)F)n3)s2)c2cnccn2)ncn1 [Example CG, 6-Methyl-N-(pyrazin-2-yl)-N-({5-[5-(trifluoromethyl)-1,2,4-oxadiazol-3-yl]thiophen-2-yl}methyl)pyrimidin-4-amine] | ≤ 10000 | ≤ 10000 | > 10000 | ≤ 10000 | ≤ 1000 | ≤ 1000 |
| FC(F)(F)c1nc(-c2ccc(CN(c3cnccn3)c3cncnc3C3CC3)s2)no1 [Example CZ, 4-Cyclopropyl-N-(pyrazin-2-yl)-N-({5-[5-(trifluoromethyl)-1,2,4-oxadiazol-3-yl]thiophen-2-yl}methyl)pyrimidin-5-amine] | ≤ 1000 | ≤ 500 | > 10000 | ≤ 500 | ≤ 10000 | ≤ 500 |
| Cc1cncnc1N(Cc1ccc(-c2noc(C(F)(F)F)n2)s1)c1cnccn1 [Example CO, 5-Methyl-N-(pyrazin-2-yl)-N-({5-[5-(trifluoromethyl)-1,2,4-oxadiazol-3-yl]thiophen-2-yl}methyl)pyrimidin-4-amine] | ≤ 10000 | ≤ 500 | > 10000 | ≤ 1000 | ≤ 1000 | ≤ 1000 |
| Cc1ncncc1N(Cc1ccc(-c2noc(C(F)(F)F)n2)s1)c1cnccn1 [Example CX, 4-Methyl-N-(pyrazin-2-yl)-N-({5-[5-(trifluoromethyl)-1,2,4-oxadiazol-3-yl]thiophen-2-yl}methyl)pyrimidin-5-amine] | ≤ 1000 | ≤ 500 | > 10000 | ≤ 500 | ≤ 10000 | ≤ 500 |
| FC(F)(F)c1nc(-c2ccc(CN(c3cnccn3)c3ccc(-n4cccn4)nn3)s2)no1 [Example DM, N-(Pyrazin-2-yl)-6-(1H-pyrazol-1-yl)-N-({5-[5-(trifluoromethyl)-1,2,4-oxadiazol-3-yl]thiophen-2-yl}methyl)pyridazin-3-amine] | ≤ 1000 | ≤ 500 | ≤ 10000 | ≤ 1000 | ≤ 1000 | ≤ 1000 |
| COc1cncnc1N(Cc1ccc(-c2noc(C(F)(F)F)n2)s1)c1cnccn1 [Example CP, 5-Methoxy-N-(pyrazin-2-yl)-N-({5-[5-(trifluoromethyl)-1,2,4-oxadiazol-3-yl]thiophen-2-yl}methyl)pyrimidin-4-amine] | ≤ 10000 | ≤ 10000 | > 10000 | ≤ 10000 | ≤ 1000 | ≤ 10000 |
